Measurements as given in patent publication US20070129252A1, “2-Halo-6-alkylphenyl-substituted spirocyclic tetramic acid derivatives” (BAYER CROPSCIENCE AKTIENGESELLSCHAFT, priority 2003, published 2007).

Columns and labels:
Assay type in all cases: in vivo
Setaria [1] = assay: Herbicidal post-emergence action (Example M); settings: greenhouse, 320 g of a.i./ha, about 3 weeks
Procedure: (§1) Herbicidal Post-Emergence Action
(§2) Seeds of monocotyledonous and dicotyledonous weed and crop plants are placed into sandy loam in wood fibre pots, covered with soil and cultivated in a greenhouse under good growth conditions. 2-3 weeks after sowing, the test plants are treated at the one-leaf stage. The test compounds, formulated as wettable powders (WP), are, in various dosages with a water application rate of 600 l/ha (converted), with 0.2% of wetting agent added, sprayed onto the green parts of the plants. After the test plants were kept in the greenhouse under optimum growth conditions for about 3 weeks, the effect of the preparations is rated visually in comparison to untreated controls (herbicidal effect in percent (%): 100% effect=the plants have died, 0% effect=like control plants).

Avena sativa = assay: Herbicidal post-emergence action (Example M); settings: greenhouse, 320 g of a.i./ha, about 3 weeks
Procedure: as §1, §2

Lolium [2] = assay: Herbicidal post-emergence action (Example M); settings: greenhouse, 320 g of a.i./ha, about 3 weeks
Procedure: as §1, §2

Setaria [3] = assay: Herbicidal pre-emergence action (Example L); settings: greenhouse, 320 g of a.i./ha, 3 weeks
From the text: (§3) Herbicidal Pre-Emergence Action
(§4) Seeds of monocotyledonous and dicotyledonous weed and crop plants are placed into sandy loam in wood fibre pots and covered with soil. The test compounds, formulated in the form of wettable powders (WP), are then, in various dosages as aqueous suspension with a water application rate of 600 l/ha (converted), with 0.2% of wetting agent added, applied to the surface of the covering soil.
(§5) After the treatment, the pots are placed in a greenhouse and kept under good growth conditions for the test plants. The visual assessment of the emergence damage on the test plants is carried out after a trial period of 3 weeks by comparison with untreated controls (herbicidal effect in percent (%): 100% effect=the plants have died, 0% effect=like control plants).

Amaranthus = assay: Herbicidal pre-emergence action (Example L); settings: greenhouse, 320 g of a.i./ha, 3 weeks
From the text: as §3, §4, §5

Lolium [4] = assay: Herbicidal pre-emergence action (Example L); settings: greenhouse, 320 g of a.i./ha, 3 weeks
From the text: as §3, §4, §5

Sinapis [5] = assay: Herbicidal post-emergence action (Example M); settings: greenhouse, 320 g of a.i./ha, about 3 weeks
Procedure: as §1, §2

Tetranychus urticae = assay: Tetranychus test (OP-resistant/spray treatment); settings: 100 g/ha; spray treatment; bean leaf discs
Procedure: Tetranychus Test (OP-Resistant/Spray Treatment)
To produce a suitable preparation of active compound, 1 part by weight of active compound is mixed with the stated amounts of solvents and emulsifier, and the concentrate is diluted with emulsifier-containing water to the desired concentration.
Discs of bean leaves (Phaseolus vulgaris) which are infested by all stages of the greenhouse red spider mite (Tetranychus urticae) are sprayed with a preparation of active compound of the desired concentration.
After the desired period of time, the activity in % is determined. 100% means that all spider mites have been killed; 0% means that none of the spider mites have been killed.

Myzus persicae = assay: Myzus test (spray treatment); settings: 100 g/ha, Chinese cabbage discs
Procedure: Myzus Test (Spray Treatment)
To produce a suitable preparation of active compound, 1 part by weight of active compound is mixed with the stated amounts of solvent and emulsifier, and the concentrate is diluted with emulsifier-containing water to the desired concentration.
Discs of Chinese cabbage (Brassica pekinensis), which are infested by all stages of the green peach aphid (Myzus persicae), are sprayed with a preparation of active compound of the desired concentration.
After the desired period of time, the effect in % is determined. 100% means that all aphids have been killed; 0% means that none of the aphids have been killed.

summer wheat = assay: Herbicidal post-emergence action, vessel trials with cereals in the greenhouse, use of safeners (Example N); settings: without safener
Procedure: as §1
(§6) Seeds of monocotyledonous and dicotyledonous weed and crop plants are placed into sandy loam in wood fibre pots or in plastic pots, covered with soil and cultivated in a greenhouse, during the vegetation period also outdoors outside of the greenhouse, under good growth conditions. 2-3 weeks after sowing, the test plants are treated at the one- to three-leaf stage. The test compounds, formulated as wettable powders (WP) or emulsifiable concentrates (EC) are, in various dosages with a water application rate of 300 l/ha (converted), with wetting agent (0.2 to 0.3%) added, sprayed onto the plants and the surface of the soil. 3-4 weeks after the treatment of the test plants, the effect of the preparations is rated visually in comparison to untreated controls (herbicidal effect in percent (%): 100% effect=the plants have died, 0% effect=like control plants).
(§7) If it is additionally to be tested as to whether safeners can improve the plant compatibility of test substances in the case of crop plants, the following options are used for applying the safener: • seeds of the crop plants are, before sowing, dressed with the safener substance (the amount of safener is stated in percent, based on the weight of the seed) • before the application of the test substances, the crop plants are sprayed with the safener at a certain application rate per hectare (usually 1 day before the application of the test substances) • the safener is applied together with the test substance as a tank mix (the amount of safener is stated in g/ha or as a ratio, based on the herbicide).
(§8) By comparing the effect of the test substances on crop plants without or with safener treatment, it is possible to assess the effect of the safener substance.
(§9) Vessel Trials with Cereals in the Greenhouse
(§10) Mefenpyr applied 1 day prior to the application of herbicide

Sinapis [6] = assay: Herbicidal pre-emergence action (Example L); settings: greenhouse, 320 g of a.i./ha, 3 weeks
From the text: as §3, §4, §5

Stellaria = assay: Herbicidal pre-emergence action (Example L); settings: greenhouse, 320 g of a.i./ha, 3 weeks
From the text: as §3, §4, §5

summer barley = assay: Herbicidal post-emergence action, vessel trials with cereals in the greenhouse, use of safeners (Example N); settings: without safener
Procedure: as §1, §6, §7, §8, §9, §10

For `CCc1cc(C)cc(Br)c1C1=C(O)C2(CCCCC2)NC1=O` [I-a-2], the “herbicidal effect in percent, Setaria” value (Setaria [1]) was 100%, the “herbicidal effect in percent, Avena sativa” value (Avena sativa) was 80% and the “herbicidal effect in percent, Lolium” value (Lolium [2]) was 90%.

With `CCOC(=O)OC1=C(c2c(Br)cc(C)cc2CC)C(=O)NC12CCC(OC)CC2` (single isomer, unassigned) [I-c-3] the “herbicidal effect in percent, Setaria” value (Setaria [3]) was 100%, the “herbicidal effect in percent, Amaranthus” value (Amaranthus) was 100% and the “herbicidal effect in percent, Lolium” value (Lolium [4]) was 100%. The “herbicidal effect in percent, Sinapis” value (Sinapis [5]) was 70%, the “herbicidal effect in percent, Setaria” value (Setaria [1]) was 100% and the “herbicidal effect in percent, Avena sativa” value (Avena sativa) was 100%. The “herbicidal effect in percent, Lolium” value (Lolium [2]) was 100%, the “Kill rate in % after 5d” value (Tetranychus urticae) was 80% and the “Kill rate in % after 5d” value (Myzus persicae) was 80%.

`CCc1cc(C)cc(Br)c1C1=C(OC(=O)COC)C2(CCCCC2)NC1=O` [Example I-b-2] was tested, and the “herbicidal effect in percent, Setaria” value (Setaria [1]) was 100%, the “herbicidal effect in percent, Avena sativa” value (Avena sativa) was 90% and the “herbicidal effect in percent, Lolium” value (Lolium [2]) was 100%. For the same compound, the “summer wheat observed (%)” value (summer wheat; 12.5 g of a.i./ha) was 20%, the “summer wheat observed (%)” value (summer wheat; 25 g of a.i./ha) was 70% and the “summer wheat observed (%)” value (summer wheat; 50 g of a.i./ha) was 98%.

For `CCc1cc(C)cc(Br)c1C1=C(OC(=O)C(C)(C)C)C2(CCCCC2)NC1=O` [I-b-4], the “herbicidal effect in percent, Setaria” value (Setaria [1]) was 90%, the “herbicidal effect in percent, Avena sativa” value (Avena sativa) was 80% and the “herbicidal effect in percent, Lolium” value (Lolium [2]) was 90%.

In the case of `CCOC(=O)OC1=C(c2c(Cl)cc(C)cc2CC)C(=O)NC12CCC(OC)CC2` (single isomer, unassigned) [Example I-c-4], the “herbicidal effect in percent, Sinapis” value (Sinapis [6]) is reported as 70%, the “herbicidal effect in percent, Setaria” value (Setaria [3]) is reported as 90% and the “herbicidal effect in percent, Stellaria” value (Stellaria) is reported as 80%. The “herbicidal effect in percent, Lolium” value (Lolium [4]) was 80%, the “herbicidal effect in percent, Sinapis” value (Sinapis [5]) was 80% and the “herbicidal effect in percent, Setaria” value (Setaria [1]) was 100%. The “herbicidal effect in percent, Avena sativa” value (Avena sativa) was 100%, the “herbicidal effect in percent, Lolium” value (Lolium [2]) was 100% and the “summer wheat observed (%)” value (summer wheat; 12.5 g of a.i./ha) was 60%. The “summer barley observed (%)” value (summer barley; 12.5 g of a.i./ha) was 20% and the “summer barley observed (%)” value (summer barley; 25 g of a.i./ha) was 70%.

`CCOC(=O)OC1=C(c2c(Br)cc(C)cc2CC)C(=O)NC12CCCCC2` [I-c-2] was tested, and the “herbicidal effect in percent, Setaria” value (Setaria [1]) was 80%, the “herbicidal effect in percent, Avena sativa” value (Avena sativa) was 90% and the “herbicidal effect in percent, Lolium” value (Lolium [2]) was 90%.

For `CCc1cc(C)cc(Br)c1C1=C(OC(=O)COC)C2(CCC(OC)CC2)NC1=O` (single isomer, unassigned) [Example I-b-5], the “herbicidal effect in percent, Sinapis” value (Sinapis [6]) was 80%, the “herbicidal effect in percent, Setaria” value (Setaria [3]) was 90% and the “herbicidal effect in percent, Lolium” value (Lolium [4]) was 100%. For the same compound, the “herbicidal effect in percent, Sinapis” value (Sinapis [5]) was 70%, the “herbicidal effect in percent, Setaria” value (Setaria [1]) was 100% and the “herbicidal effect in percent, Avena sativa” value (Avena sativa) was 100%. The “herbicidal effect in percent, Lolium” value (Lolium [2]) was 100%, the “Kill rate in % after 5d” value (Tetranychus urticae) was 70% and the “summer barley observed (%)” value (summer barley; 12.5 g of a.i./ha) was 35%. The “summer barley observed (%)” value (summer barley; 25 g of a.i./ha) was 65%, the “summer barley observed (%)” value (summer barley; 50 g of a.i./ha) was 98% and the “Kill rate in % after 5d” value (Myzus persicae) was 80%.

In the case of `CCc1cc(C)cc(Br)c1C1=C(OC(=O)C(C)C)C2(CCCCC2)NC1=O` [Example I-b-3], the “herbicidal effect in percent, Setaria” value (Setaria [1]) is reported as 100%, the “herbicidal effect in percent, Avena sativa” value (Avena sativa) is reported as 100% and the “herbicidal effect in percent, Lolium” value (Lolium [2]) is reported as 90%. For the same compound, the “summer wheat observed (%)” value (summer wheat; 12.5 g of a.i./ha) was 10%, the “summer wheat observed (%)” value (summer wheat; 25 g of a.i./ha) was 20% and the “summer wheat observed (%)” value (summer wheat; 50 g of a.i./ha) was 75%.
